Biological target: T1, hTAS1R1 Q278K/rTAS1R3 (Homo sapiens, UniProt Q7RTX1, Q278K)
T1 construct: UniProtKB number Q7RTX1–1); expressed in transfected cells; host or cells: HEK293T/17 (ATCC CRL-11268)
T1 sequence (Q7RTX1 21-841 Q278K): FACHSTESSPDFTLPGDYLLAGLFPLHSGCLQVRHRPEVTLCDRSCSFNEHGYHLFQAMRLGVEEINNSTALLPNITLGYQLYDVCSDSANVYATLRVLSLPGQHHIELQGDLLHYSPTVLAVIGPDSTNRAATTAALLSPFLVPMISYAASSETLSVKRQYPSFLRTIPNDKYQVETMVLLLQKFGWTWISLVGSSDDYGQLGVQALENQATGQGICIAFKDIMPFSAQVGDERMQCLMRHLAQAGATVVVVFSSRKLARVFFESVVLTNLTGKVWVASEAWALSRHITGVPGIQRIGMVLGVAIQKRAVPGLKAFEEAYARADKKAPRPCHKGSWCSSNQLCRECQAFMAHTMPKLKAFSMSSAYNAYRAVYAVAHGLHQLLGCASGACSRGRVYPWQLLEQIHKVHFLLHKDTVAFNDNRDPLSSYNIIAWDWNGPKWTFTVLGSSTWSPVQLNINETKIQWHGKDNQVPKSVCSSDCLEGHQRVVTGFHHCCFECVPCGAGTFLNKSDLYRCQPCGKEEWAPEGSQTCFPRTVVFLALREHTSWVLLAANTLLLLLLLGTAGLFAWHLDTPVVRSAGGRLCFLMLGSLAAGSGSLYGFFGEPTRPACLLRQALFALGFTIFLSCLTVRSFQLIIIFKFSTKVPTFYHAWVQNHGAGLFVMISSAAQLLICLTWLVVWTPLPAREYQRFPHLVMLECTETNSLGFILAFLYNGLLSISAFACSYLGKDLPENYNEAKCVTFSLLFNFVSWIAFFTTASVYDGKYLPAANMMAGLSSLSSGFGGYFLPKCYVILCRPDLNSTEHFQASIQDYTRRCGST
T1 sequence (Q923K1 21-858 partner): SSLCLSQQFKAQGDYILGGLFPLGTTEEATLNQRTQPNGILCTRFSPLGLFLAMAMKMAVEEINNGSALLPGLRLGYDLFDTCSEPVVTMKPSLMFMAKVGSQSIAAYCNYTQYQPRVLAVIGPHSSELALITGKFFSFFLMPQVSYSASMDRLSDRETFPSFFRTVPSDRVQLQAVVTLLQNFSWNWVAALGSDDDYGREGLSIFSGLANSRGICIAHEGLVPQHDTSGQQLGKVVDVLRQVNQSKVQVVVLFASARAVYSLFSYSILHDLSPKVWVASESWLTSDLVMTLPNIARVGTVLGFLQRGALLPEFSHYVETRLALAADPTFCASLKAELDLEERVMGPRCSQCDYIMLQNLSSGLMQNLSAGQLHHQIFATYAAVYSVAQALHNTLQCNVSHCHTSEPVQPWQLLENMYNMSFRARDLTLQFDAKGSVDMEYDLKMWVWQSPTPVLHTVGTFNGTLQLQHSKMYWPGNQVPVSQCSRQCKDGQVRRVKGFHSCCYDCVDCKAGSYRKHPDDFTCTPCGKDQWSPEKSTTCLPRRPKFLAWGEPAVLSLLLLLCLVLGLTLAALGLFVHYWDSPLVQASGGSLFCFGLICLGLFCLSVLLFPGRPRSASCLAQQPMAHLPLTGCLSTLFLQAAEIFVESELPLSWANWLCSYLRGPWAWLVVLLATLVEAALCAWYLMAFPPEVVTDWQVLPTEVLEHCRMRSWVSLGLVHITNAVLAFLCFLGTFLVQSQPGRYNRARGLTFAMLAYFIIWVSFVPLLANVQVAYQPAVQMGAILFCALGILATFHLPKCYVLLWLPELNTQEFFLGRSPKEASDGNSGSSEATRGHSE
Assay: Calcium assay, hTAS1R1 mutant co-expressed with rTAS1R3
Format: cell-based, rat

N[C@@H](CCC(=O)N[C@@H](CS)C(=O)NCC(=O)O)C(=O)O [GSH, γ-L-glutamyl-L-cysteinyl-glycine]
EC50: 5.66 ± 0.31 mM
effect of the added compound (1 mM) on the response to L-Glu (Q278K): synergy was observed
response to the agonist alone, vs WT (Q278K): significantly increased the initial amplitude
Max ∆F/F0 (Q278K, GSH): 1.10 ± 0.02
R1 = mutant EC50/WT EC50 (Q278K, GSH): 2.2
